Drawing on ChEMBL document CHEMBL1158402, “Homology modeling of MCH1 receptor and validation by docking/scoring and protein-aligned CoMFA” (Eur J Med Chem, 2009), this text covers Ki for 28 molecules.

Structures are written as SMILES.

For orientation: Ki means a measure of affinity in units of concentration, obtained from inhibition or displacement. A high value points to a looser hold on the target.

Chain of Melanin-concentrating hormone receptor 1 (Q99705 whole entry): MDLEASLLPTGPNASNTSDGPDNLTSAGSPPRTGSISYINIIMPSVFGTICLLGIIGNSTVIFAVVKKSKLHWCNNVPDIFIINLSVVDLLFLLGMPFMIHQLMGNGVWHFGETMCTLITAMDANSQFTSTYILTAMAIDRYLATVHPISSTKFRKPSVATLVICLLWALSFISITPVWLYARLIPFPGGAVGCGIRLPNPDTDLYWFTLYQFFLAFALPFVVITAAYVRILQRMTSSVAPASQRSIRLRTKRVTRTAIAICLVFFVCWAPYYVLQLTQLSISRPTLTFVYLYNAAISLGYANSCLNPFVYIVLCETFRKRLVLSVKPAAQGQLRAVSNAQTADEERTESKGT

This experiment concerns the target Melanin-concentrating hormone receptor 1 (Homo sapiens, UniProt Q99705). Nature of the experiment: Binding affinity to MCH1 receptor.
`Cc1ccc(CN2CCC(=Cc3ccc(C(=O)N[C@H](C)c4ccc(Br)cc4)cc3)CC2)c2ccccc12` showed a Ki of 1410 nM.

The molecule `C[C@@H](NC(=O)c1ccc(CC2CCN(Cc3ccc4c(c3)OCO4)CC2)cc1)c1ccccc1` showed a Ki of 3470 nM.

Consider `COc1cccc([C@@H](C)NC(=O)c2ccc(CC3CCN(Cc4ccc5c(c4)OCO5)CC3)cc2)c1`, for which the Ki came out at 266 nM.

Regarding `C[C@@H](NC(=O)c1ccc(CC2CCN(Cc3ccc4c(c3)OCO4)CC2)cc1)c1ccc(Cl)cc1`, the Ki is 108 nM.

Molecule `CC[C@@H](NC(=O)c1ccc(CC2CCN(Cc3ccc4c(c3)OC(F)(F)O4)CC2)cc1)c1ccc(I)cc1` returned a Ki of 795 nM.

The molecule `CC[C@@H](NC(=O)c1ccc(CC2CCN(Cc3ccc4cncnc4c3)CC2)cc1)c1ccc(I)cc1` yielded a Ki of 30 nM.

The molecule `CC[C@@H](NC(=O)c1ccc(CC2CCN(Cc3ccc4cccnc4c3)CC2)cc1)c1ccc(I)cc1` returned a Ki of 5 nM.

On to `C[C@@H](NC(=O)c1ccc(C=C2CCN(Cc3ccco3)CC2)cc1)c1ccc(Br)cc1`, for which affinity was put at a Ki of 15600 nM.

As to `O=C(N[C@@H]1CCc2ccccc21)c1ccc(CC2CCN(Cc3ccc4c(c3)OCO4)CC2)cc1`, the Ki was 4680 nM.

As for `COc1ccccc1[C@@H](C)NC(=O)c1ccc(CC2CCN(Cc3ccc4c(c3)OCO4)CC2)cc1`, affinity was put at a Ki of 2060 nM.

As to `C[C@@H](NC(=O)c1ccc(CC2CCN(Cc3ccc4c(c3)OCO4)CC2)cc1)c1ccc(I)cc1`, the Ki was 51 nM.

On to `Cc1ccc([C@@H](C)NC(=O)c2ccc(CC3CCN(Cc4ccc5c(c4)OCO5)CC3)cc2)cc1`, for which affinity was put at a Ki of 1080 nM.

In the case of `CC[C@@H](NC(=O)c1ccc(CC2CCN(Cc3ccc4ccccc4n3)CC2)cc1)c1ccc(I)cc1`, the Ki turned out to be 312 nM.

Take `C[C@@H](NC(=O)c1ccc(C=C2CCN(Cc3ccccc3)CC2)cc1)c1ccc(Br)cc1`: the Ki worked out at 2580 nM.

In the case of `C[C@@H](NC(=O)c1ccc(C=C2CCN(CC3CCCCC3)CC2)cc1)c1ccc(Br)cc1`, the Ki was determined as 11800 nM.

Molecule `CC(NC(=O)c1ccc(CC2CCN(Cc3ccc4c(c3)OCO4)CC2)cc1)c1ccccc1` (stereo not drawn) showed a Ki of 4130 nM.

For the molecule `Cc1ccccc1CNC(=O)c1ccc(CC2CCN(Cc3ccc4c(c3)OCO4)CC2)cc1`, the affinity corresponds to a Ki of 9330 nM.

Consider `CCC[C@@H](NC(=O)c1ccc(CC2CCN(Cc3ccc4c(c3)OCO4)CC2)cc1)c1ccc(I)cc1`, for which the Ki came out at 191 nM.

Turning to `CC[C@@H](NC(=O)c1ccc(CC2CCN(Cc3ccc4nccnc4c3)CC2)cc1)c1ccc(I)cc1`, the affinity, expressed as Ki, was 40 nM.

`C[C@@H](NC(=O)c1ccc(CN2CCN(Cc3ccc4c(c3)OCO4)CC2)cc1)c1ccc(Br)cc1` registered a Ki of 1950 nM.

As to `CC1CN(Cc2ccc3c(c2)OCO3)CCN1Cc1ccc(C(=O)N[C@@H](C)c2ccc(Br)cc2)cc1` (stereo partly drawn), the Ki is 4560 nM.

Regarding `C[C@@H](NC(=O)c1ccc(CC2CCN(Cc3ccc4c(c3)OCO4)CC2)cc1)C1CCCCC1`, affinity was put at a Ki of 3570 nM.

`C[C@@H](NC(=O)c1ccc(C=C2CCN(Cc3ccc(-c4ccccc4)cc3)CC2)cc1)c1ccc(Br)cc1` showed a Ki of 5110 nM.

Consider `CC(c1ccc(C(=O)N[C@@H](C)c2ccc(Br)cc2)cc1)N1CCN(Cc2ccc3c(c2)OCO3)CC1` (stereo partly drawn), for which the affinity corresponds to a Ki of 2330 nM.

In turn, `COc1ccc(CN2CCC(=Cc3ccc(C(=O)N[C@H](C)c4ccc(Br)cc4)cc3)CC2)cc1` gave an inhibition constant (Ki) of 149 nM.

Regarding `O=C(Cc1ccc2c(c1)CCO2)c1ccc(CC2CCN(Cc3ccc4c(c3)OCO4)CC2)cc1`, the Ki is 133 nM.

`CC[C@@H](NC(=O)c1ccc(CC2CCN(Cc3ccc4c(c3)OCO4)CC2)cc1)c1ccc(I)cc1` showed a Ki of 20 nM.

`O=C(NCc1ccccc1)c1ccc(CC2CCN(Cc3ccc4c(c3)OCO4)CC2)cc1` returned a Ki of 5640 nM.
